In patent US12692322B2, “KRAS specific antibodies and uses thereof” (Genentech, Inc., priority 2020, dated 2026):

Assays:
[1] = target: T1, alkylated KRas^G12C in H1171 KRas^G12C cells (Homo sapiens, UniProt P01116, G12C); experiment: Immunofluorescence and high content imaging; assay type: cell-based; details: treatment for 16 hours
T1 construct: Immunoprecipitation of alkylated and un-alkylated KRas^G12C in H1171 KRAS^G12C mutant cancer cells; endogenous in cells; host or cells: H1171 (HCC1171) KRAS G12C mutant cancer cells
Description: Immunofluorescence and High Content Imaging Cells (20000 to 40000 cells per well depending on the cell line) were seeded into Poly-L-Lysine Coated 96-well plates (Cell Carrier Ultra; Perkin Elmer) and supplemented with complete medium (RPMI with 2% L-Glutamine and 10% FBS). The next day, cells were treated with KRas^G12C inhibitors at indicated concentrations and incubated for the indicated length of time. At the end of treatment, cells were washed twice with cold 1×PBS, fixed with 3% paraformaldehyde for 20 minutes at room temperature, washed for 10 minutes with 1×PBS, and the PFA was quenched with 50 mM NH4Cl for 10 minutes at room temperature. Cells were washed again with 1×PBS twice for 5 minutes, then permeabilized with 1× Perm/Wash Buffer (BD, Fisher Scientific) for 20 minutes at room temperature. Cells were then incubated with primary antibody diluted in Perm/Wash buffer at indicated concentration for 2 hours at room temperature. Cells were then washed three times with Perm/Wash buffer for 10 minutes each, and the incubated with conjugated fluorescence secondary antibody for 20 to 60 minutes (Alexa488 anti-human and Alexa647 anti-rabbit or anti-rat at 1:500 from Jackson ImmunoResearch Laboratories Inc.) 100 ml of 300 nM DAPI was added to each well for 15 minutes and then cells were washed twice with Perm/Wash buffer, and once with 1×PBS prior to imaging. […]

[2] = test system: SWII pocket of KRas^G12C-GDP and KRas^WT-GDP; experiment: SPR of SWII ligands with SWII-blocked reference, with and without 2H11; assay type: binding, human
Description: Surface plasmon resonance (SPR) experiments with 2H11 anti-KRas antibody. A series S SA (streptavidin) chip was inserted into a Biacore T200 (GE Health Sciences). The instrument was primed into running buffer (50 mM HEPES pH 7.5, 150 mM NaCl, 0.2% (w/v) PEG-3350, 0.1% CM-dextran (w/v), 0.1 mM TCEP, 10 mM MgCl2, 100 nM GDP, and 2% (v/v) DMSO). KRas^G12C was pre-blocked at the 12 position with covalent binding KRas^G12C alkylator was captured to yield 2000-2500 response units (RU) on flow channel 1 (FC1) and FC3 to serve as the reference for KRas^WT and KRas^G12C and allow affinity measurement exclusively at the Switch II (SWII) pocket. KRas^WT or KRas^G12C was captured on FC2 and FC4 within 100 RU of the reference channel capture level and data was collected in FC 2-1, FC 4-3 mode. […] Analyte samples were tested […] in 2-fold dose response with 20-30 second contact time and 30 second dissociation. Data was analyzed in with a 1:1 affinity model in Biacore S200 Evaluation Software 1.0 and figures were made in Scrubber 2 (Biologic Software) (FIG. 5A and FIG. 5B).

| Structure (SMILES) | alkylation of KRas^G12C by IF and immunoblot analysis [1] | affinity of SWII covalent molecules in the presence versus absence of 2H11 anti-KRas antibody [2] |
| --- | --- | --- |
| C=CC(=O)N1CCN(c2ncnc3c(F)c(-c4c(O)cccc4F)c(Cl)cc23)CC1 (atropisomer, axis not shown) [ARS-1620, (R)-1-(4-(6-chloro-8-fluoro-7-(2-fluoro-6-hydroxyphenyl)quinazolin-4-yl)piperazin-1-yl)prop-2-en-1-one] | almost complete alkylation | greatly enhanced |
| C=CC(=O)N1CCN(c2ncnc3cc(-c4c(C)ccc5[nH]ncc45)c(Cl)cc23)CC1 (atropisomer, axis not shown) [GNE-1952, (R)-1-(4-(6-chloro-7-(5-methyl-TH-indazol-4-yl)quinazolin-4-yl)piperazin-1-yl)prop-2-en-1-one] |  | greatly enhanced |
| C=CC(=O)N1CC(N2CCN(C(=O)CNc3cc(C4(C)CC4)c(Cl)cc3O)CC2)C1 [ARS-853, 1-(3-(4-((4-chloro-2-hydroxy-5-(1-methylcyclopropyl)phenyl)glycyl)piperazin-1-yl)azetidin-1-yl)prop-2-en-1-one] |  | greatly enhanced |
